# How the values were obtained:
# HIV = tested on: HIV; parameters: method as in PMID 3025240; details: PBMCs from healthy donors; read-out: EC50, anti-HIV activity; cited from earlier work
# Human CMV strain AD169 = assay: HCMV yield reduction assay in HFF cells; format: cell-based, human cytomegalovirus; details: Human betaherpesvirus 5, AD169, HFF
# Description: (§1) Human CMV strain AD169 was obtained from ATCC and assayed in human foreskin fibroblast cells (HFF). HFF cells were prepared at the University of Alabama at Birmingham (UAB) tissue procurement facility with IRB approval as previously described. Yield reduction assays for HCMV were performed on monolayers of HFF cells prepared in 96-well plates and incubated at 37°C for 1d to allow the cells to reach confluency. Media was then aspirated from the wells were infected at a high multiplicity of infection (MOI). At 1h following infection, the inocula were removed and the monolayers rinsed with fresh media. Compounds were then diluted in assay media consisting of MEM with Earl’s salts supplemented with 2% FBS, L-glutamine, penicillin, and gentamycin. Solutions ranging from 0.0032–10μM in primary assay and 0.032–100μM in secondary assay were added to the wells and the plates were incubated for various times, depending on the virus used and represents the length of a single replication cycle for the virus. A duplicate set of dilutions were also performed but remained uninfected to serve as a cytotoxicity control and received equal compound exposure. Supernatants from each of the infected wells were subsequently titered in a TCID50 assay to quantify the progeny virus.
# Rev-GFP fusion = tested on: Rev-GFP fusion; parameters: method as in PMID 3025240; details: read-out: EC50, forced nuclear retention of Rev-GFP fusion; cited from earlier work
# [1] = tested on: Epstein-Barr virus (EBV) Akata strain; assay: EBV secondary assay, qPCR of viral DNA in induced Akata cells; format: cell-based
# Description: EBV Akata strain was assayed in Akata cells (John Sixbey, LSU) latently infected with EBV (and therefore oncogenic). Cells were maintained in RPMI 1640, (Mediatech) with 10% FBS (Hyclone), L-glutamine, penicillin and gentamicin.
# Secondary assay for EBV were performed in Akata cells that were induced to undergo a lytic infection with 50μg/ml of a goat anti-human IgG antibody by methods we reported previously. Experimental compounds were diluted in round bottom 96-well plates to yield concentrations ranging from 0.0032–100μM. Akata cells were added to the plates at a concentration of 4×10^4 cells per well and […]. Assay plates were incubated for seven days at 37°C. For all assays, the replication of the virus was assessed by the quantification of viral DNA. For primer sequences, please see S1 Table. EBV DNA was purified according to manufacturer’s instructions (Wizard SV 96 Genomic DNA Purification System). The purified DNA was then subjected to qPCR that amplified a fragment corresponding to nucleotides 96802–97234 in the EBV genome (AJ507799). Plasmid pMP218 containing a DNA sequences corresponding to nucleotides 14120–14182 (AF148805.2) was used to provide absolute quantification of viral DNA. Compound concentrations sufficient to reduce genome copy number by 50% were calculated from experimental data.
# [2] = tested on: Guinea pig CMV strain 22122; assay: GPCMV plaque reduction assay in GPL cells; format: cell-based, guinea pig cytomegalovirus; details: in Cavia porcellus, primary screen
# Description: Murine CMV strain Smith was obtained from Earl Kern and assayed in mouse embryonic fibroblast cells (MEF) immortalized by telomerization. Guinea pig CMV strain 22122 was obtained from the ATCC and assayed in primary guinea pig lung cells (GPL). Both MEF and GPL cells were prepared at the UAB tissue procurement facility with IRB approval as previously described.
# Plaque reduction assays for MCMV, GPCMV were performed on monolayers of GPL (GPCMV) or MEF (MCMV) cells prepared in six-well plates and incubated at 37°C for 2d to allow the cells to reach confluency. Media was then aspirated from the wells and 0.2ml of virus was added to each of three wells to yield 20–30 plaques in each well. The virus was allowed to adsorb to the cells for 1h and the plates were agitated every 15min. Compounds were diluted in assay media consisting of MEM with Earl’s salts supplemented with 2% FBS, L-glutamine, penicillin, and gentamycin. Solutions ranging from 0.0032–10μM (primary) or 0.032–100μM (secondary) were added to triplicate wells and the plates were incubated for various times, depending on the virus used. For MCMV and GPCMV, the cell monolayer was stained with 1% neutral red solution for 4h at which time the stain was aspirated and cells were washed with PBS. […]
# [3] = mouse, in vivo, 10 mg/kg; cited from earlier work
# [4] = Cytotoxicity in HFF cells, concurrent with HCMV assays; format: cell-based; details: human, human foreskin fibroblast cells (HFF)
# Description: (§2) Cytotoxicity assays: Concurrent assessment of cytotoxicity was also performed for each study in the same cell line and with the same compound exposure.
# For HCMV cytotoxicity assay was determined via neutral red uptake assay and was conducted as reported previously in HFF cells. Optical densities were determined at 550nm.
# as §1, with “Yield reduction” for “Human CMV strain AD169 was obtained from ATCC and assayed in human foreskin fibroblast cells (HFF). HFF cells were prepared at the University of Alabama at Birmingham (UAB) tissue procurement facility with IRB approval as previously described. Yield reduction”, “progeny virus. […]” for “progeny virus.”
# histamine H1 receptor [5] = target: T1, histamine H1 receptor (Homo sapiens, UniProt P35367); assay: Histamine H1 receptor functional activity assay, antagonist; format: biochemical; details: Study No. KS-1017, read-out: IC50 (50% inhibitory concentration)
# T1 sequence (P35367 whole entry, species assumed): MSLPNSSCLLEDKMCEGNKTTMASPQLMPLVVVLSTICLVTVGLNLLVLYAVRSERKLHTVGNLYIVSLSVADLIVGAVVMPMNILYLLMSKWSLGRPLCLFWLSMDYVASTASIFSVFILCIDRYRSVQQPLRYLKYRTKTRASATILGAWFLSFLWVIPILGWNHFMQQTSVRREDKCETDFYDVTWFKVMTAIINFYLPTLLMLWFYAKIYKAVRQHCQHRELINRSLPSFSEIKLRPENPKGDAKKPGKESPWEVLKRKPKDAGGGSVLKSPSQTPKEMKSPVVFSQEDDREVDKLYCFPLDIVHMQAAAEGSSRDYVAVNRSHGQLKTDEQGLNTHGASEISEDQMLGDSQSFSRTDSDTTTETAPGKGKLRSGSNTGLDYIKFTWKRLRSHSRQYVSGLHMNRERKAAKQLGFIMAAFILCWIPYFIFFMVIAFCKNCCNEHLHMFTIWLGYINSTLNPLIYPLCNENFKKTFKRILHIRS
# [6] = Cytotoxicity in HEK293 cells (cell counter viability); format: cell-based; details: human, HPV-11 primary screen
# Description: as §2
# HPV cytotoxicity assay was performed at the time of viral harvest by scoring cells in a BioRad Automatic Cell Counter for cell viability.
# histamine H1 receptor [7] = target: T1, histamine H1 receptor; assay: Histamine H1 receptor functional activity assay, agonist; format: biochemical; details: Study No. KS-1017, read-out: IC50 (50% inhibitory concentration)
structure (smiles),measurement,setting,value
"O=C(C=Cn1cnc(-c2cc(C(F)(F)F)cc(C(F)(F)F)c2)n1)NNc1ccccn1 (stereo in doubt) [verdinexor, (E)-3-[3-[3,5-bis(trifluoromethyl)phenyl]-1,2,4-triazol-1-yl]-N'-pyridin-2-ylprop-2-enehydrazide]",EC50,HIV,116 ± 54 nM
same,EC50,Human CMV strain AD169; primary screen,190 nM
same,EC50,Human CMV strain AD169; secondary screen,2500 nM
same,EC50,Rev-GFP fusion,160 nM
same,"SI (Selectivity Index, CC50/EC50)","[1]; EBV, secondary screen, qPCR",7
same,EC50,"[1]; human gammaherpesvirus 4, Akata",50 nM
same,EC50,[2],190 nM
same,half life,[3],6 h
same,CC50,[4]; HCMV primary screen,1760 nM
same,CC50,[4]; HCMV secondary screen,73300 nM
same,IC50,histamine H1 receptor [5],> 10000 nM
same,CC50,[6],89600 nM
same,IC50,histamine H1 receptor [7],> 10000 nM
